Assay results as given in patent publication US9186360B2, “Treatment of respiratory disorders using TRPA1 antagonists” (GLENMARK PHARMACEUTICALS S.A., priority 2011, dated 2015).

How the values were obtained:
human TRPV3 = human TRPV3 (Homo sapiens (Human), UniProt Q8NET8); assay: Radiometric calcium selectivity assay, CHO cells expressing human TRPV3 (2-aminoethoxydiphenyl borate); format: cell-based; settings: read-out: IC50 values hTRPV3
human TRPV4 = human TRPV4 (Homo sapiens (Human), UniProt Q9HBA0); assay: Radiometric calcium selectivity assay, CHO cells expressing human TRPV4 (4α-phorbol 12,13-didecanoate); format: cell-based; settings: read-out: IC50 values hTRPV4
human TRPV4, sequence (Q9HBA0 whole entry): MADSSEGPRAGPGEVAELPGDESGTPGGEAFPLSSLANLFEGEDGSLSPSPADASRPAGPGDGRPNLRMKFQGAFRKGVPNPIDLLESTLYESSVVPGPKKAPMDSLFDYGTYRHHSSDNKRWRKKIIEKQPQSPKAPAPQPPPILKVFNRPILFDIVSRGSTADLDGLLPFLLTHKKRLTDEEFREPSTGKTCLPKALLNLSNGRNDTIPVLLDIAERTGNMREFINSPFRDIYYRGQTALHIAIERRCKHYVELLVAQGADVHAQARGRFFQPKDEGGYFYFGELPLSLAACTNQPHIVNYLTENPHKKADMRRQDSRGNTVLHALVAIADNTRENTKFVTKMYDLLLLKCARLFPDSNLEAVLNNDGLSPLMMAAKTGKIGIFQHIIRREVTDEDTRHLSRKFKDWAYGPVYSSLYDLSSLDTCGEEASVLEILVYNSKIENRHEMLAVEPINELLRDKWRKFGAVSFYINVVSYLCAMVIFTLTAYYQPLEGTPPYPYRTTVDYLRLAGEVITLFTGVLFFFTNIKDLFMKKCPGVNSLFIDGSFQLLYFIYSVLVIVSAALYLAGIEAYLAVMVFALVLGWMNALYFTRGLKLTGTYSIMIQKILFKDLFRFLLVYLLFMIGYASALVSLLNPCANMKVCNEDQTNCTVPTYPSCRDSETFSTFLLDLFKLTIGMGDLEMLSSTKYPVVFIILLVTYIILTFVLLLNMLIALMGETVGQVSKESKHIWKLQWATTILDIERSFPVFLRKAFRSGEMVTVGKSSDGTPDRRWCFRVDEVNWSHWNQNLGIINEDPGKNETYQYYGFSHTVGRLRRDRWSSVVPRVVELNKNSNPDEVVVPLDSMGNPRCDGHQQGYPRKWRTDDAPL

[1] = system: LPS exposed Brown Norway rats; assay: Aerosolized LPS induced airway inflammation in Brown Norway rats; format: in vivo, rat; settings: i.t. 4 hours before LPS; Compound 52 1000 μg/animal, Compound 90 2000 μg/animal; BAL 12 hours
Experimental: Male Brown Norway rats were exposed to aerosolized Lipopolysaccharide (LPS) (100 μg/ml) for 40 minutes at 1.8 bar pressure using a nebulizer (Hudson Respiratory Care Incorporated), phosphate buffered saline (PBS) control animals were exposed to hyrdroxylamine hydrochloride in PBS.
Test compounds were triturated and volume was made up with either distilled water or normal saline (0.9% NaCl). Animals were administered Compound 52 and Compound 90 intra-treacheally 4 hours before LPS aerosolized exposure. Animals were sacrificed 12 hours after aerosolized exposure. The control group of animals received only 2 mg Lactose/100 μl distilled water/animal intratracheally or normal saline 100 μl/animal intratracheally.
Broncho alveolar lavage (BAL) was performed at approximately 12 hours after aerosolized exposure. Animals were euthanized with an overdose of urethane, trachea was exposed and BAL was performed 5 times using 2 ml PBS. All aspirates of BAL were pooled and total number of cells determined using a hemocytometer. BALFwas centrifuged. […]
The total number of neutrophils in each BAL sample was calculated using the formula:
[formula] Percent inhibition of neutrophils was calculated using the following formula:
[formula] Data was statistically evaluated by ANOVA followed by Dunnett's multiple comparisons test. […]

human TRPM8 = human TRPM8 (Homo sapiens (Human), UniProt Q7Z2W7); assay: Radiometric calcium selectivity assay, CHO cells expressing human TRPM8 (icilin); format: cell-based; settings: read-out: IC50 values hTRPM8
human TRPM8, sequence (Q7Z2W7 whole entry): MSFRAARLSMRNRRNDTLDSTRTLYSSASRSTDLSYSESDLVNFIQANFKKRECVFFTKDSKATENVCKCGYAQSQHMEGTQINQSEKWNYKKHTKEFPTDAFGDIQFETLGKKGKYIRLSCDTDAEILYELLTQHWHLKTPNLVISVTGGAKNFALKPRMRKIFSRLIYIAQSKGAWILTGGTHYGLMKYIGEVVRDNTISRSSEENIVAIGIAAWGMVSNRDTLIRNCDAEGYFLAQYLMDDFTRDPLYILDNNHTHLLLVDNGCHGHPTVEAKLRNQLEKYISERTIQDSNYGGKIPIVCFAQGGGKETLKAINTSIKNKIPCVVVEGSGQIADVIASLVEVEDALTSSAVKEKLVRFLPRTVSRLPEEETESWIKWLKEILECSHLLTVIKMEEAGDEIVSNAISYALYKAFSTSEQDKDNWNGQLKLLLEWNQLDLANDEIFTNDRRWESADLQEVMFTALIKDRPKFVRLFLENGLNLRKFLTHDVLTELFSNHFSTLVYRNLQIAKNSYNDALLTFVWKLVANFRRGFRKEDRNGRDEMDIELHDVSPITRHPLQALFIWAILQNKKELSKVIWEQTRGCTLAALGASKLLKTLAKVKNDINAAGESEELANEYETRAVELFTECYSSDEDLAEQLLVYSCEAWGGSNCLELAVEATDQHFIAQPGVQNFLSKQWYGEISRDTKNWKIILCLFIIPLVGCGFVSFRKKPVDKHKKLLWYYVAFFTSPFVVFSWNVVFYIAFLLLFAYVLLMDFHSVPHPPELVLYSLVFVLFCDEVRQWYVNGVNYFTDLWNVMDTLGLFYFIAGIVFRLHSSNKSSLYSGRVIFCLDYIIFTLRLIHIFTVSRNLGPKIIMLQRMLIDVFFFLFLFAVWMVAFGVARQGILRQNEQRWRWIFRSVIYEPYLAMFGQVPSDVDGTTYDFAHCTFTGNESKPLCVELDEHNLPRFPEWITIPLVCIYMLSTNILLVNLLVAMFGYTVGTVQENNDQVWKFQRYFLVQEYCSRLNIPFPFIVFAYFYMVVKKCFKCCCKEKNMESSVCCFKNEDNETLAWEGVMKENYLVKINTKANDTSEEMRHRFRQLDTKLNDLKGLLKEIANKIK

human TRPV1 = human TRPV1 (Homo sapiens (Human), UniProt Q8NER1); assay: Radiometric calcium selectivity assay, CHO cells expressing human TRPV1 (capsaicin); format: cell-based; settings: read-out: IC50 values hTRPV1
human TRPV1, sequence (Q8NER1 whole entry): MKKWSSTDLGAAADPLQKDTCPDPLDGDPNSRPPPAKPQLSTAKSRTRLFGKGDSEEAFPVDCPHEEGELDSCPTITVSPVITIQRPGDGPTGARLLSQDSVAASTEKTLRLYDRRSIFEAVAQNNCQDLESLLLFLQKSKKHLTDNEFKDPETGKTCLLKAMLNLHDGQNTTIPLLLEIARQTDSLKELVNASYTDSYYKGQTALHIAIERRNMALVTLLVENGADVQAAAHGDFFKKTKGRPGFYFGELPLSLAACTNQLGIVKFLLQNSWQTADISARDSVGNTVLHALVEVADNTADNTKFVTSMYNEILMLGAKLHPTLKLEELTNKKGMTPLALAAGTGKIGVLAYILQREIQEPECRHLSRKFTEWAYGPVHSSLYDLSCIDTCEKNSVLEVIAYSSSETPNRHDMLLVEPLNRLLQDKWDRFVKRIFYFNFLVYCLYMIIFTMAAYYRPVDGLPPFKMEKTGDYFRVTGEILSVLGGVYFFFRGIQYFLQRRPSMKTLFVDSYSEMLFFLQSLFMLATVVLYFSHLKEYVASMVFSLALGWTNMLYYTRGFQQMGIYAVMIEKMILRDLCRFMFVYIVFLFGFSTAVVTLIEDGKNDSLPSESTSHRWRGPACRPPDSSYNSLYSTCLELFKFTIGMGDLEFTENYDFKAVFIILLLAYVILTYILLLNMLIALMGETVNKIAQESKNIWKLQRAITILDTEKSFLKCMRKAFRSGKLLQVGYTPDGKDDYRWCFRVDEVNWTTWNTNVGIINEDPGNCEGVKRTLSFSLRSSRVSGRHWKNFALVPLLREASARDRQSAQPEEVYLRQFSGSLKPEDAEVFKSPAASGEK

[2] = system: ovalbumin sensitized Brown Norway rats; assay: Ovalbumin asthma model in Brown Norway rats (Example 5); format: in vivo, rat; settings: i.t. 1 hour before ovalbumin challenge, BAL 48 hours; dose dependent
Experimental: (§1) Male BN rats were sensitized subcutaneously (s.c.) on day 0, 14 and 21 with 0.5 ml solution containing 20 μg/ml ovalbumin (Ova) and 40 mg/ml aluminum hydroxide. Simultaneously the animals were injected intraperitoneally (i.p.) with 0.25 ml of B. pertussis vaccine/rat containing 4×10^8 heat killed bacilli/ml. The rats were challenged with 1% aerosolized ovalbumin on Day 28 following sensitization.
Test compounds were triturated and volume was made up with Normal Saline (0.9% NaCl). Animals were administered TRPA1 antagonists (Compound 52, Compound 73, Compound 84, Compound 90 and Compound 92) intra-tracheally (i.t.) 1 hour and fluticasone 24 hours and 1 hour before ovalbumin challenge. Animals were sacrificed 48 hours after ovalbumin challenge.
BAL was performed at approximately 48 hours after ovalbumin challenge and the pooled BAL was used to determined total number of cells and for cell differential study (according to Example 2).
The total number of eosinophils in each BAL sample and % inhibition of eosinophils were calculated according to Example 3
(§2) The data was statistically evaluated by ANOVA followed by Dunnett's multiple comparisons test.

[3] = Pharmacokinetics in guinea pig upon intra-tracheal administration; format: in vivo; settings: 500 mcg i.t.; for AUC0-24 / Cmax: mean ± SD (N = 3); for Tmax: guinea pig, other: intra-tracheal, 500 ug
Experimental: Guinea pigs were dosed intra-tracheally with Compound 52 with lactose as a vehicle. At various time points, animals were sacrificed with an overdose of urethane, trachea was exposed and BAL was performed 5 times using 5 mL PBS. Lung tissue was collected and kept at −70° C. until analysis. The BAL was centrifuged, and the cell pellet was collected and kept at −70° C. until analysis.

[4] = system: ovalbumin sensitized Brown Norway rats; assay: Ovalbumin challenge in Brown Norway rats, intra-tracheal dosing (Example 3); format: in vivo, rat; settings: i.t.
Experimental: as §1, with “Brown Norway” for “BN”, “subcutaneously” for “subcutaneously (s.c.)”, “ovalbumin” for “ovalbumin (Ova)”, “Simultaneously” for “Simultaneously the”, “Rats” for “The rats”
Test compounds were triturated and volume was made up with Normal Saline (0.9% NaCl). Animals were administered Compound 52 intra-tracheally 1 hour before ovalbumin challenge. Animals were sacrificed 48 hours after ovalbumin challenge and BAL was performed as mentioned in Example 2. The pooled BAL was used to determined total number of cells using a hemocytometer. Further, cell differential study was performed according to Example 2.
The total number of eosinophils in each BAL sample was calculated using the formula: […]
Percent inhibition of eosinophils was calculated using the following formula: […]
as §2

[5] = system: ovalbumin sensitized Dunkin Hartley guinea pigs; assay: Ovalbumin induced asthma model in guinea pigs, intra-tracheal dosing; format: in vivo, guinea pig; settings: for Percent inhibition of eosinophils: BAL 48 hours after challenge; for Airway conductance sGAW (AUC): 4 hours before ovalbumin challenge
Experimental: Healthy male Dunkin Hartley guinea pigs weighing between 300-400 gm were sensitized on day 0 with (5 mg) and on day 2 with (10 mg) of ovalbumin (Ova) and 10 mg of aluminum hydroxide gel given intra peritoneal (i.p.). Guinea pigs were challenged with 0.3% aerosolized ovalbumin on Day 21 following sensitization.
Actively sensitized male guinea pigs with free access to water, were fasted overnight, and used for the studies. Animals were assigned to one of the following groups during each experiment as per Table 2 below.
Guinea pigs were dosed intra-tracheally with Compound 52 or vehicle 4 hours before exposure to aerosolized ovalbumin challenge. The control group of animals received vehicle (Lactose powder—2 mg/animal, i.t.) only.
Broncho Alveolar Lavage (BAL) was performed at 48 hours after challenge with ovalbumin. Animals were anesthetized with an overdose of urethane, trachea was exposed and BAL was performed 5 times using 5 mL PBS. All aspirates of BAL were pooled and total number of cells determined using a hemocytometer. The BAL was centrifuged, and the cell pellet re-suspended in 50 μL guinea pig serum and used for preparation of smears. Slides were stained with Giemsa stain and a differential cell count of 500 cells based on standard morphology was performed manually.
The total number of eosinophils in each BAL sample was calculated using the formula:
[formula] Percent inhibition of eosinophils was calculated using the following formula: […]
The results for the bronchoconstriction part were calculated as percent (%) change in sGaw from saline base-line readings with saline taken just 1 minute before the antigen challenge and reported as peak change (mean±S.E.M.) for every 5 minutes for a total duration of 30 min after OA challenge. Area under the curve (AUC) was determined for each animal using GraphPad Prism. The percent (%) increase in AUC in the treated group relative to the vehicle group was calculated. Data was statistically analyzed using ANOVA and Dunnett's post hoc test.

human TRPV3, sequence (Q8NET8 whole entry): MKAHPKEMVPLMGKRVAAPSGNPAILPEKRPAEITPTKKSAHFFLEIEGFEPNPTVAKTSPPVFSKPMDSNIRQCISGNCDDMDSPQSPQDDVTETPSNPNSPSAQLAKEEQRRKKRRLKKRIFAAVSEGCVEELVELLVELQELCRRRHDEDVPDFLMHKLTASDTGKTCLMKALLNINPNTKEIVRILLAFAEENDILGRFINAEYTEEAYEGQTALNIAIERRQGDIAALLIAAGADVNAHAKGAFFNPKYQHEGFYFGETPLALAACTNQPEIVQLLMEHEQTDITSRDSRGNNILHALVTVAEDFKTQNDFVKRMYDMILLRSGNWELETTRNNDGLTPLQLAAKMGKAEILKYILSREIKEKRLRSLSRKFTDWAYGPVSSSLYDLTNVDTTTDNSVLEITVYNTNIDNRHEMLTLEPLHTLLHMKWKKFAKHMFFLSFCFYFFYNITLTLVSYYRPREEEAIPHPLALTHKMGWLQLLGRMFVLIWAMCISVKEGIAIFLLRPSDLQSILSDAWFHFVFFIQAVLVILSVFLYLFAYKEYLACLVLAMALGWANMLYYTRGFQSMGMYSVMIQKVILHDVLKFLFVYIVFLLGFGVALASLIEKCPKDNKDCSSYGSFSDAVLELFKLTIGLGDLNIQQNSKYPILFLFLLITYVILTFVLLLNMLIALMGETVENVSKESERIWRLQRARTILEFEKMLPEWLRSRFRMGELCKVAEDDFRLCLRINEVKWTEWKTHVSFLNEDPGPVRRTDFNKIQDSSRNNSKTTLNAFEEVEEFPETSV

With `COCCCOc1cccc(C2NC(=S)NC3=C2C(=O)c2ccccc23)c1` (stereo not drawn) [Compound 90] the IC50 (human TRPV3) was greater than 10 µM, the IC50 (human TRPV4) was greater than 10 µM and the “neutrophils in BALF” value [1] was “significant inhibition”. The “total leukocytes in BALF” value [1] was “significant inhibition”, the IC50 (human TRPM8) was greater than 10 µM and the IC50 (human TRPV1) was greater than 10 µM. The pulmonary eosinophilia [2] was “significant inhibition”.

With `Cn1c(=O)c2c(CC(=O)Nc3nc(-c4ccc(F)c(C(F)(F)F)c4F)cs3)csc2n(C)c1=O` [Compound 52] the AUC0-24 ([3]; Cell Pellet (BAL)) was 70390 ± 12071 ng · h/ml or g, the Cmax ([3]; Cell Pellet (BAL)) was 6726 ± 2049 ng/ml or g and the AUC0-24 ([3]; Lung Tissue) was 103786 ± 28285 ng · h/ml or g. The Cmax ([3]; Lung Tissue) was 4989 ± 2548 ng/ml or g, the Tmax ([3]; Cell Pellet (BAL)) was 0.25 h and the Tmax ([3]; Lung Tissue) was 8 h. The “ED50, inhibition of pulmonary eosinophilia” value [4] was 213 µg, the “Percent inhibition of eosinophils” value ([5]; dose 125 μg/animal i.t.) was 61% and the “Percent inhibition of eosinophils” value ([5]; dose 250 μg/animal i.t.) was 87%. For the same molecule, the “Percent inhibition of eosinophils” value ([5]; dose 500 μg/animal i.t.) was 68%, the “Airway conductance sGAW (AUC)” value ([5]; dose 25 (table μg/kg; text μg/animal) i.t.) was 1399 and the “Percent improvement in airway conductance” value (from here on “Percent improvement”) ([5]; dose 25 i.t.) was 0%. The “Percent inhibition of eosinophils” value ([5]; dose 25 i.t.) was 0%, the “Percent improvement” value ([5]; dose 50 i.t.) was 7% and the “Airway conductance sGAW (AUC)” value ([5]; dose 50 i.t.) was 1592. The “Percent inhibition of eosinophils” value ([5]; dose 50 i.t.) was 0%, the “Percent improvement” value ([5]; dose 125 i.t.) was 39% and the “Airway conductance sGAW (AUC)” value ([5]; dose 125 i.t.) was 1943. The “Percent improvement” value ([5]; dose 250 i.t.) was 45%, the “Airway conductance sGAW (AUC)” value ([5]; dose 250 i.t.) was 2004 and the “Percent improvement” value ([5]; dose 500 i.t.) was 43%. For the same molecule, the “Airway conductance sGAW (AUC)” value ([5]; dose 500 i.t.) was 1987 and the inhibition of eosinophils ([5]; dose not stated for this figure) was 75%.
